EP2758401B1 (Bayer Intellectual Property GmbH, priority 2011, dated 2013)

Assays:
MKNK1 [1] = biological target: T1, MKNK1 (Homo sapiens, UniProt Q9BUB5, T385D); assay: MKNK1 kinase high ATP assay (TR-FRET); type: biochemical; settings: ATP final conc. 2 mM; 15 min pre-incubation; reaction time 30 min at 22°C
T1 construct: GST (N); purchased Carna Biosciences 02-145; host or cells: insect cells (baculovirus expression system)
Description: MKNK1-inhibitory activity at high ATP of compounds of the present invention after their preincubation with MKNK1 was quantified employing the TR-FRET-based MKNK1 high ATP assay as described in the following paragraphs.
As substrate for the kinase reaction the biotinylated peptide biotin-Ahx-[…] (C-terminus in amide form) was used, which can be purchased e.g. from the company Biosyntan (Berlin-Buch, Germany).
For the assay 50 nL of a 100fold concentrated solution of the test compound in DMSO was pipetted into a black low volume 384well microtiter plate (Greiner Bio-One, Frickenhausen, Germany), 2 µL of a solution of MKNK1 in aqueous assay buffer [50 mM HEPES pH 7.5, 5 mM magnesium chloride, 1.0 mM dithiothreitol, 0.005% (v/v) Nonidet-P40 (Sigma)] was added and the mixture was incubated for 15 min at 22°C to allow pre-binding of the test compounds to the enzyme before the start of the kinase reaction. Then the kinase reaction was started by the addition of 3 µL of a solution of adenosine-tri-phosphate (ATP, 3.3 mM => final conc. in the 5 µL assay volume is 2 mM) and substrate (0.1 µM => final conc. in the 5 µL assay volume is 0.06 µM) in assay buffer and the resulting mixture was incubated for a reaction time of 30 min at 22°C. The concentration of MKNK1 was adjusted depending of the activity of the enzyme lot and was chosen appropriate to have the assay in the linear range, typical concentrations were in the range of 0.003 µg/mL. The reaction was stopped by the addition of 5 µL of a solution of TR-FRET detection reagents (5 nM streptavidine-XL665 [Cisbio Bioassays, Codolet, France] and 1 nM anti-ribosomal protein S6 (pSer236)-antibody from Invitrogen [# 44921G] and 1 nM LANCE EU-W1024 labeled ProteinG [Perkin-Elmer, product no. AD0071]) in an aqueous EDTA-solution (100 mM EDTA, 0.1 % (w/v) bovine serum albumin in 50 mM HEPES pH 7.5).
(§1) The resulting mixture was incubated for 1 h at 22°C to allow the formation of complex between the phosphorylated biotinylated peptide and the detection reagents. Subsequently the amount of phosphorylated substrate was evaluated by measurement of the resonance energy transfer from the Eu-chelate to the streptavidine-XL. Therefore, the fluorescence emissions at 620 nm and 665 nm after excitation at 350 nm were measured in a TR-FRET reader, e.g. a Rubystar (BMG Labtechnologies, Offenburg, Germany) or a Viewlux (Perkin-Elmer). The ratio of the emissions at 665 nm and at […] was taken as the measure for the amount of phosphorylated substrate. The data were normalised (enzyme reaction without inhibitor = 0 % inhibition, all other assay components but no enzyme = 100 % inhibition).

MKNK1 [2] = biological target: T1, MKNK1; assay: MKNK1 kinase assay (TR-FRET); type: biochemical; settings: ATP final conc. 10 µM; 15 min pre-incubation; reaction time 45 min at 22°C
Description: MKNK1-inhibitory activity of compounds of the present invention was quantified employing the MKNK1 TR-FRET assay as described in the following paragraphs.
As substrate for the kinase reaction the biotinylated peptide biotin-Ahx-[…] (C-terminus in amide form) was used which can be purchased e.g. form the company Biosyntan (Berlin-Buch, Germany).
For the assay 50 nL of a 100fold concentrated solution of the test compound in DMSO was pipetted into a black low volume 384well microtiter plate (Greiner Bio-One, Frickenhausen, Germany), 2 µL of a solution of MKNK1 in aqueous assay buffer [50 mM HEPES pH 7.5, 5 mM magnesium chloride, 1.0 mM dithiothreitol, 0.005% (v/v) Nonidet-P40 (Sigma)] was added and the mixture was incubated for 15 min at 22°C to allow pre-binding of the test compounds to the enzyme before the start of the kinase reaction. Then the kinase reaction was started by the addition of 3 µL of a solution of adenosine-tri-phosphate (ATP, 16.7 µM => final conc. in the 5 µL assay volume is 10 µM) and substrate (0.1 µM => final conc. in the 5 µL assay volume is 0.06 µM) in assay buffer and the resulting mixture was incubated for a reaction time of 45 min at 22°C.
as §1, with “inhibition). […] Table 1: MKNK1 IC50s” for “inhibition).”

T1 sequence (Q9BUB5 1-424 isoform Q9BUB5-2 T344D): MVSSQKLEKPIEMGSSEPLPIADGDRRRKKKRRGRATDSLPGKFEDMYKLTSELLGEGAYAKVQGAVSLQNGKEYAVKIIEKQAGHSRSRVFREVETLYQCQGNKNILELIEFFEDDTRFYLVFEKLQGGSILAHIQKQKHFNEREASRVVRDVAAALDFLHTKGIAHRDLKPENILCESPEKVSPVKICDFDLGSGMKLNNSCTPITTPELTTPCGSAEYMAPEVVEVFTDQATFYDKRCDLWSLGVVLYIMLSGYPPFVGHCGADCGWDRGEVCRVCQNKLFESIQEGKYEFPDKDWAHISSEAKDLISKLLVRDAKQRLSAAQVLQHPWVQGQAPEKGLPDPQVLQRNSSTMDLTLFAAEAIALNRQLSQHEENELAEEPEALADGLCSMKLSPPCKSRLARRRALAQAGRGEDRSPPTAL

Molecule	IC50 (MKNK1 [1]) [µM]	IC50 (MKNK1 [2]) [µM]
1-{[3-(1-Benzofuran-2-yl)imidazo[1,2-b]pyridazin-6-yl]oxy}-2-methylpropan-2-amine [Example 29]	0.059	0.017
COc1cccc2oc(-c3cnc4ccc(OCCCCN)nn34)cc12 [Example 1, 4-{[3-(4-Methoxy-1-benzofuran-2-yl)imidazo[1,2-b]pyridazin-6-yl]oxy}butan-1-amine]	0.005	0.003
N[C@H]1C[C@H](Oc2ccc3ncc(-c4cc5ccccc5o4)n3n2)C1 [Example 2, trans-3-{[3-(1-Benzofuran-2-yl)imidazo[1,2-b]pyridazin-6-yl]oxy}cyclobutan-amine]	0.006	0.005
N[C@H]1C[C@@H](Oc2ccc3ncc(-c4cc5ccccc5o4)n3n2)C1 [Example 3, cis-3-{[3-(1-Benzofuran-2-yl)imidazo[1,2-b]pyridazin-6-yl]oxy}cyclobutan-amine]	0.017	0.004
COc1cccc2oc(-c3cnc4ccc(OCCCN)nn34)cc12 [Example 4, 3-{[3-(4-Methoxy-1-benzofuran-2-yl)imidazo[1,2-b]pyridazin-6-yl]oxy}propan-1-amine]	0.015	0.005
COc1cccc2oc(-c3cnc4ccc(OCCN)nn34)cc12 [Example 5, 2-{[3-(4-Methoxy-1-benzofuran-2-yl)imidazo[1,2-b]pyridazin-6-yl]oxy}ethan-amine]	0.018	0.006
COc1ccc2oc(-c3cnc4ccc(OCCN)nn34)cc2c1 [Example 6, 2-{[3-(5-Methoxy-1-benzofuran-2-yl)imidazo[1,2-b]pyridazin-6-yl]oxy}ethan-amine]	0.013	0.006
C[C@H](N)COc1ccc2ncc(-c3cc4ccccc4o3)n2n1 [Example 7, (2S)-1-{[3-(1-Benzofuran-2-yl)imidazo[1,2-b]pyridazin-6-yl]oxy}propan-2-amine]	0.018	0.007
NCCCCOc1ccc2ncc(-c3cc4ccccc4o3)n2n1 [Example 8, 4-{[3-(1-Benzofuran-2-yl)imidazo[1,2-b]pyridazin-6-yl]oxy}butan-1-amine]	0.017	0.007
COc1ccc2oc(-c3cnc4ccc(OCCCN)nn34)cc2c1 [Example 9, 3-{[3-(5-Methoxy-1-benzofuran-2-yl)imidazo[1,2-b]pyridazin-6-yl]oxy}propan-1-amine]	0.022	0.007
NCCOCCOc1ccc2ncc(-c3cc4ccccc4o3)n2n1 [Example 21, 2-(2-{[3-(1-Benzofuran-2-yl)imidazo[1,2-b]pyridazin-6-yl]oxy}ethoxy)ethan-amine]	0.014	–
N[C@@H]1CCCC[C@H]1Oc1ccc2ncc(-c3cc4ccccc4o3)n2n1 [Example 23, (1R,2R)-2-{[3-(1-Benzofuran-2-yl)imidazo[1,2-b]pyridazin-6-yl]oxy}cyclohexan-amine]	0.018	–
NC1(COc2ccc3ncc(-c4cc5ccccc5o4)n3n2)CCC1 [Example 27, 1-({[3-(1-Benzofuran-2-yl)imidazo[1,2-b]pyridazin-6-yl]oxy}methyl)cyclobutan-amine]	0.029	–
C=CCCC(CN)Oc1ccc2ncc(-c3cc4ccccc4o3)n2n1 (centres unmarked) [Example 28, 2-{[3-(1-Benzofuran-2-yl)imidazo[1,2-b]pyridazin-6-yl]oxy}hex-5-en-1-amine]	0.045	–
NCC(CN1CCOCC1)Oc1ccc2ncc(-c3cc4ccccc4o3)n2n1 (centres unmarked) [Example 31, 2-{[3-(1-Benzofuran-2-yl)imidazo[1,2-b]pyridazin-6-yl]oxy}-3-(morpholin-4-yl)-propan-1-amine]	0.078	–
NC(COc1ccc2ncc(-c3cc4ccccc4o3)n2n1)C1CCOCC1 (centres unmarked) [Example 32, 2-{[3-(1-Benzofuran-2-yl)imidazo[1,2-b]pyridazin-6-yl]oxy}-1-(tetrahydro-2H-pyran-4-yl)ethanamine]	0.079	–
NCC(Cc1ccc(F)cc1)Oc1ccc2ncc(-c3cc4ccccc4o3)n2n1 (centres unmarked) [Example 53, 2-{[3-(1-Benzofuran-2-yl)imidazo[1,2-b]pyridazin-6-yl]oxy}-3-(4-fluorophenyl)-propan-1-amine]	0.046	–
NCC(Cc1ccncc1)Oc1ccc2ncc(-c3cc4ccccc4o3)n2n1 (centres unmarked) [Example 54, 2-{[3-(1-Benzofuran-2-yl)imidazo[1,2-b]pyridazin-6-yl]oxy}-3-(pyridin-4-yl)-propan-1-amine]	0.019	–
NC[C@H](Oc1ccc2ncc(-c3cc4ccccc4o3)n2n1)c1cccnc1 [Example 55, (2R)-2-{[3-(1-benzofuran-2-yl)imidazo[1,2-b]pyridazin-6-yl]oxy}-2-(pyridin-3-yl)ethanamine]	–	0.016
NCC(Oc1ccc2ncc(-c3cc4ccccc4o3)n2n1)c1ccc(F)cc1 (centres unmarked) [Example 56, 2-{[3-(1-benzofuran-2-yl)-imidazo-[1,2-b]-pyridazin-6-yl]oxy}-2-(4-fluorophenyl)-ethanamine]	–	0.04
NCC(Oc1ccc2ncc(-c3cc4ccccc4o3)n2n1)c1ccccn1 (centres unmarked) [Example 57, 2-{[3-(1-benzofuran-2-yl)-imidazo-[1,2-b]-pyridazin-6-yl]oxy}-2-(pyridin-2-yl)-ethanamine]	–	0.094
CC(C)Oc1cccc(C(CN)Oc2ccc3ncc(-c4cc5ccccc5o4)n3n2)c1 (centres unmarked) [Example 58, 2-{[3-(1-benzofuran-2-yl)-imidazo-[1,2-b]-pyridazin-6-yl]oxy}-2-(3-iso-propoxyphenyl)-ethanamine]	–	0.02
NCC(Oc1ccc2ncc(-c3cc4ccccc4o3)n2n1)c1cccc(C(F)(F)F)c1 (centres unmarked) [Example 59, 2-{[3-(1-benzofuran-2-yl)-imidazo-[1,2-b]-pyridazin-6-yl]oxy}-2-[3-(trifluoromethyl)-phenyl]-ethanamine]	–	0.037
NCC(Oc1ccc2ncc(-c3cc4ccccc4o3)n2n1)c1ccc(F)cc1F (centres unmarked) [Example 60, 2-{[3-(1-benzofuran-2-yl)-imidazo-[1,2-b]-pyridazin-6-yl]oxy}-2-(2,4-difluorophenyl)-ethanamine]	–	0.039
N[C@H](COc1ccc2ncc(-c3cc4ccccc4o3)n2n1)c1ccc(F)cc1 [Example 61, (1S)-2-{[3-(1-benzofuran-2-yl)imidazo[1,2-b]pyridazin-6-yl]oxy}-1-(4-fluorophenyl)ethanamine]	–	0.029
N[C@H](COc1ccc2ncc(-c3cc4ccccc4o3)n2n1)c1ccc(Cl)cc1 [Example 62, (1S)-2-{[3-(1-benzofuran-2-yl)imidazo[1,2-b]pyridazin-6-yl]oxy}-1-(4-chlorophenyl)ethanamine]	–	0.031
NC(COc1ccc2ncc(-c3cc4ccccc4o3)n2n1)c1cccnc1 (centres unmarked) [Example 63, 2-{[3-(1-benzofuran-2-yl)imidazo[1,2-b]pyridazin-6-yl]oxy}-1-(pyridin-3-yl)ethanamine]	–	0.054
NCCC(Oc1ccc2ncc(-c3cc4ccccc4o3)n2n1)c1ccc(F)cc1 (centres unmarked) [Example 64]	–	0.057
